Here are results for 16 compounds from US12643889B2, “Synthesis of novel EP4 antagonist and use in cancer and inflammation” (Wuhan Humanwell Innovative Drug Research And Development …, priority 2020, dated 2026).

One may read the IC50 as the midpoint of a concentration-inhibition curve. One may read the Ki as the dissociation constant of the complex between target and ligand, obtained from inhibition or displacement. By AUC(0-t) is commonly meant the area under the concentration-time curve up to a stated or last time point. Low values mean low exposure, high ones high exposure. As usually defined, the Cmax is the peak of the concentration-time curve. The Tmax is the time from dosing to the highest level. A word on the half-life: it is how long it takes for the measured level to halve. As a reminder, the clearance is the volume of plasma or blood freed of the substance per unit of time.

Series [1] has as its target T1, recombinant human EP4 receptor membrane protein (Homo sapiens, UniProt P35408).
T1 construct: expressed in transfected cells; host or cells: membranes of 293 cells overexpressing human EP4 receptor
Description: Radioligand binding assay for EP4 receptor ([3H]-PGE2). The conditions noted are these: [3H]-PGE2 1.5 nM; membrane protein 20 μg/well. The method, then:
The compounds to be tested and PGE2 were formulated as 10 mM stocks in a DMSO solvent, and then 8 concentration points of 4× working solution were serially diluted using a buffer (50 mM HBSS, 0.1% BSA, 500 mM NaCl). […] Unifilter-96 GF/C filter plate (Perkin Elmer) was soaked with 0.5% BSA, 50 μL per well, for at least 30 min at room temperature. After binding was complete, the reaction mixture was harvested through a GF/C plate using a Perkin Elmer Filtermate Harvester, followed by washing the filter plate and drying the filter plate for 1 hour at 50° C. After drying, the bottom of the filter plate wells was sealed using a Perkin Elmer Unifilter-96 sealing tape, and 50 μL of MicroScint™-20 cocktail (Perkin Elmer) was added to seal the top of the filter plate. The ^3H counts captured on the filter were read using a Perkin Elmer MicroBeta2 Reader.
The IC50 and Ki values of the compounds determined by the radioligand binding assay for EP4 receptor were calculated based on the inhibition rate of the different concentrations of the compounds.

Series [2] addresses T2, human EP4 receptor (Homo sapiens, UniProt P35408). Description: Assay of calcium current inhibition on EP4 receptor (FLIPR, 293 cells). The class given is cell-based. On the set-up: expressed in transfected cells; host or cells: 293 cells. Conditions: for IC50: 293 cells overexpressing human EP4, PGE2 at EC80, FLIPR. The method, then: The cells were rapidly thawed in a 37° C. water bath, centrifuged, resuspended, and counted. The cell suspensions were seeded at 20 μL/well in two 384-well plates (20,000 cells/well) and placed in an incubator (a 37° C., 5% CO2) overnight. Preparation of a 2× Fluo-4 Direct™ (Invitrogen, Cat #F10471) loading buffer: 77 mg of probenecid was added to 1 mL of a FLIPR buffer, with a concentration of 250 mM. 10 mL of FLIPR buffer and 0.2 mL of probenecid (250 mM) were added to each tube of Fluo-4 Direct™ crystals (F10471).
One of the cell plates was taken out of the incubator and the medium was removed. 20 μL of an assay buffer and 2× Fluo-4 Direct™ non-wash loading buffer were added to the 384-well cell culture plate to a final volume of 40 μL, and then the culture plate was incubated in an incubator (a 37° C., 5% CO2) for 50 minutes, and then at room temperature for 10 minutes, and then the plate was placed in the FLIPR. 10 μL of the buffer was transferred to the cell plate and the fluorescence signal was read. The agonist PGE2 was formulated as a 10 mM stock in a DMSO solvent and 10 concentration points of the 6× working solution were serially diluted using the buffer. 10 μL of the agonist PGE2 was transferred to the cell plate, the fluorescence signal was read to calculate EC80 value.
The agonist PGE2 was prepared at 6× EC80 concentration and the compound to be tested was formulated as a 10 mM stock solution in the DMSO solvent and 10 concentration points of the 6× compound working solution was serially diluted using the buffer.
Another cell plate was taken to remove media and 20 μL of the assay buffer and 2× Fluo-4 Direct™ non-wash loading buffer were added; the cell plate was incubated in a 37° C., 5% CO2 incubator for 50 minutes and room temperature for 10 minutes and then placed in the FLIPR. 10 μL of the compound working solution, DMSO, and the EP4 full antagonist were transferred to the cell plate and the fluorescence signal was read. […] Inhibition (%)=100−(test group−EP4 full antagonist group)/(DMSO group−EP4 full antagonist group)*100
Compound's IC50 value of EP4 calcium current inhibition was calculated based on the inhibition rate at different concentrations of the compound.

Series [3] concerns the target T2, human EP4 receptor. The series can be described thus: Assay for EP4 antagonistic effect (cAMP, PGE2-stimulated CHO stable cell line).
Description: After trypsinization, cells were resuspended in a buffer (1×HBSS, 0.1% BSA, 20 mM HEPES, and 500 μM IBMX) and 8000 cells were seeded per well in 384-well plates in a seeding volume of 15 μL. A working solution the compound with a 8× concentration was prepared with an experimental buffer, and then 2.5 μL of the working solution of the compound with 8× concentration was added to the 384-well plate, respectively, and incubated at 37° C. for 30 min. An agonist PGE2 working solution with 8× concentration of (4 nM) was prepared with the experimental buffer and 2.5 μL per well was added to the 384-well plate (the final PGE2 concentration was 0.5 nM) and incubated at 37° C. for 30 min. After the reaction was completed, the amount of cAMP in the cells was quantified according to the method in the instructions of the cAMP test kit (Perkin Elmer, Cat #TRF0263). The antagonistic effects (IC50 value) were calculated for the test compounds.
A short description of series [4]: Mouse pharmacokinetic assay. The class given is in vivo, male ICR mice. Conditions: male, ICR, plasma, oral gavage administration 5 mg/kg. Here is the method: (§1) In a mouse pharmacokinetic assay, male ICR mice (20 g to 25 g) were selected and fasted overnight. Three mice were selected and intragastrically administered with 5 mg/kg of the corresponding compound. The blood of the mice was collected before the administration and at 15 min, 30 min, 1 h, 2 h, 4 h, 8 h, 24 h after the administration. Another 3 mice were intravenously administered with 1 mg/kg of the corresponding compound, and the blood thereof was collected before the administration and at 15 min, 30 min, 1 h, 2 h, 4 h, 8 h, 24 h after the administration. The blood samples were centrifuged at 6800 g at 2° C. to 8° C. for 6 minutes, and plasma was collected and stored at −80° C. The plasma was taken at respective time point, mixed with 3-5 times the amount of acetonitrile containing internal standard, vortexed for 1 minute, centrifuged at 4° C. for 10 minutes at 13000 rpm, supernatant was added 3 times the amount of water, and the appropriate mixture was taken for LC-MS/MS analysis. The primary pharmacokinetic parameters were analyzed with a WinNonlin 7.0 software, with non-compartmental model.

A short description of series [5]: Rat pharmacokinetic assay. Type of series: in vivo, male SD rats. The conditions noted are these: male, SD, plasma, rat, intravenous administration 1 mg/kg. Here is the method: as §1
In a rat pharmacokinetic assay, male SD rats (180 g to 240 g) were selected and fasted overnight. Three rats were intragastrically administered with 5 mg/kg of the corresponding compound. Another 3 rats were intravenously administered with 1 mg/kg of the corresponding compound. The following operations were the same as the mouse pharmacokinetic assay.

T1 sequence (P35408 whole entry): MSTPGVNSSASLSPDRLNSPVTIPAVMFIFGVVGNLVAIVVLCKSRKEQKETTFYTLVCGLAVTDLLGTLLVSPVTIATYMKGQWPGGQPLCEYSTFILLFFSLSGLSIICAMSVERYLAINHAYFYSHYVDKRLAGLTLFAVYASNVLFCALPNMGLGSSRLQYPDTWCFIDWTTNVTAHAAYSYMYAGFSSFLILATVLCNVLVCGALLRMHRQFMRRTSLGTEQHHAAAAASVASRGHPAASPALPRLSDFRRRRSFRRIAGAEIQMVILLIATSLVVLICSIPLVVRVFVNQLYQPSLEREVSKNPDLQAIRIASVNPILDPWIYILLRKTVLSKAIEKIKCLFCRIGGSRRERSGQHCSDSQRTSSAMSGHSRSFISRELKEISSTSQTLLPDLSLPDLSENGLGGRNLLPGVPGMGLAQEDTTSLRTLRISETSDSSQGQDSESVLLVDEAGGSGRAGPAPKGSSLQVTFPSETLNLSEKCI
T2 sequence (P35408 whole entry): as above

With `C[C@H](NC(=O)c1c(C(F)F)nn(C)c1Oc1cccc(C2CC2)c1)c1ccc(C(=O)O)cc1` [Compound I-3, (S)-4-(1-(5-(3-cyclopropylphenoxy)-3-(difluoromethyl)-1-methyl-1H-pyrazole-4-carboxamido)ethyl)benzoic Acid], the results for the IC50 in series [1], in series [2] and in series [3] were 9 nM, 3 nM and 2.8 nM, respectively. Also, the Ki in series [1] is 4.9 nM.
Consider `CC(C)c1cccc(Oc2c(C(=O)N[C@@H](C)c3ccc(C(=O)O)cc3)c(C(F)F)nn2C)c1` [Compound I-4, (S)-4-(1-(3-(difluoromethyl)-5-(3-isopropylphenoxy)-1-methyl-1H-pyrazole-4-carboxamido)ethyl)benzoic Acid], for which, in series [1], the IC50 is 7.4 nM and the Ki is 4 nM. The IC50 in series [2] was 4 nM. For the same compound, the “increase of inhibition effect on the calcium current of EP4 compared with the control compound” value in series [2] (compared with the control compound) is listed as “more than 5 time”.
As to `Cc1nn(C)c(Oc2cccc(C(C)(F)F)c2)c1C(=O)N[C@@H](C)c1ccc(C(=O)O)cc1` [Compound I-8, (S)-4-(1-(5-(3-(1,1-difluoroethyl)phenoxy)-1,3-dimethyl-1H-pyrazole-4-carboxamido)ethyl)benzoic Acid], the IC50 in series [2] was 16.5 nM.
With `CCc1cccc(Oc2c(C(=O)N[C@@H](C)c3ccc(C(=O)O)cc3)c(C)nn2C)c1` [Compound I-9, (S)-4-(1-(5-(3-ethylphenoxy)-1,3-dimethyl-1H-pyrazole-4-carboxamido)ethyl) benzoic Acid], in series [3], the IC50 worked out at 29 nM.
As to `C[C@H](NC(=O)c1c(C(F)F)nn(C)c1Oc1ccc(F)c(C(C)(F)F)c1)c1ccc(C(=O)O)cc1` [Compound I-10, (S)-4-(1-(5-(3-(1,1-difluoroethyl)-4-fluorophenoxy)-3-(difluoromethyl)-1-methyl-1H-pyrazole-4-carboxamido)ethyl)benzoic Acid], the IC50 in series [1] amounted to 4 nM; in series [2], 14 nM. For the same compound, the Ki in series [1] was determined as 2.2 nM.
Regarding `CCc1cc(Oc2c(C(=O)N[C@@H](C)c3ccc(C(=O)O)cc3)c(C(F)F)nn2C)ccc1Cl` [Compound I-11, (S)-4-(1-(5-(4-chloro-3-ethylphenoxy)-3-(difluoromethyl)-1-methyl-1H-pyrazole-4-carboxamido)ethyl)benzoic Acid], the figures for the IC50 in series [1] and in series [2] were 6.8 nM and 8 nM, respectively. Besides, the Ki in series [1] is 3.7 nM.
On to `CCc1cc(F)cc(Oc2c(C(=O)N[C@@H](C)c3ccc(C(=O)O)cc3)c(C(F)F)nn2C)c1` [Compound I-12, (S)-4-(1-(3-(difluoromethyl)-5-(3-ethyl-5-fluorophenoxy)-1-methyl-1H-pyrazole-4-carboxamido)ethyl)benzoic Acid], for which the IC50 in series [2] was found to be 19 nM.
Still for that read-out and setting: as for `CC(F)c1cccc(Oc2c(C(=O)N[C@@H](C)c3ccc(C(=O)O)cc3)c(C(F)F)nn2C)c1` (stereo partly drawn) [Compound I-13, 4-((1S)-1-(3-(difluoromethyl)-5-(3-(1-fluoroethyl)phenoxy)-1-methyl-1H-pyrazole-4-carboxamido)ethyl)benzoic Acid], the figure is 10 nM.
`CC(c1cccc(Oc2c(C(=O)N[C@@H](C)c3ccc(C(=O)O)cc3)c(C(F)F)nn2C)c1)C(F)(F)F` (stereo partly drawn) [Compound I-15, 4-((1S)-1-(3-(difluoromethyl)-1-methyl-5-(3-(1,1,1-trifluoropropan-2-yl)phenoxy)-1H-pyrazole-4-carboxamido)ethyl)benzoic Acid]: in series [1], the IC50 was 12 nM and the Ki is 6.6 nM. The IC50 in series [2] amounted to 18 nM.
In the case of `CCc1cc(Oc2c(C(=O)N[C@@H](C)c3ccc(C(=O)O)cc3)c(C(F)F)nn2C)ccc1C` [Compound I-17, (S)-4-(1-(3-(difluoromethyl)-5-(3-ethyl-4-methylphenoxy)-1-methyl-1H-pyrazole-4-carboxamido)ethyl)benzoic Acid], in series [2], the IC50 stood at 18 nM.
As for `CC(O)c1cc(Oc2c(C(=O)N[C@@H](C)c3ccc(C(=O)O)cc3)c(C(F)F)nn2C)ccc1F` (stereo partly drawn) [Compound I-23, 4-((1S)-1-(3-(difluoromethyl)-5-(4-fluoro-3-(1-hydroxyethyl)phenoxy)-1-methyl-1H-pyrazole-4-carboxamido)ethyl)benzoic Acid], in series [1], the IC50 is 13 nM and the Ki was 7 nM.
Regarding `C[C@H](NC(=O)c1c(C(F)F)nn(C)c1Oc1ccc(-c2ccccc2)cc1)c1ccc(C(=O)O)cc1` [Compound I-26, (S)-4-(1-(5-([1,1′-biphenyl]-4-yloxy)-3-(difluoromethyl)-1-methyl-1H-pyrazole-4-carboxamido)ethyl)benzoic Acid], in series [2], the IC50 amounted to 8.5 nM.
For `C[C@H](NC(=O)c1c(C(F)F)nn(C)c1Oc1cccc(S(F)(F)(F)(F)F)c1)c1ccc(C(=O)O)cc1` [Compound I-28, (S)-4-(1-(3-(difluoromethyl)-1-methyl-5-(3-(pentafluoro-λ^6-sulfanyl)phenoxy)-1H-pyrazole-4-carboxamido)ethyl)benzoic Acid], the results for the IC50 in series [2] and in series [3] were 8 nM and 5.7 nM, respectively.
Consider `C[C@H](NC(=O)c1c(C(F)F)nn(C)c1Oc1cccc(SC(F)(F)F)c1)c1ccc(C(=O)O)cc1` [Compound I-29, (S)-4-(1-(3-(difluoromethyl)-1-methyl-5-(3-((trifluoromethyl)thio)phenoxy)-1H-pyrazole-4-carboxamido)ethyl)benzoic Acid], for which the IC50 in series [3] turned out to be 14 nM.
On to `C[C@H](NC(=O)c1c(C(F)F)nn(C)c1Oc1cccc(OCC(F)(F)F)c1)c1ccc(C(=O)O)cc1` [Compound I-33, (S)-4-(1-(3-(difluoromethyl)-1-methyl-5-(3-(2,2,2-trifluoroethoxy)phenoxy)-1H-pyrazole-4-carboxamido)ethyl)benzoic Acid], for which, in series [1], the IC50 was 31 nM and the Ki came to 17 nM. Besides, in series [4], the AUC(0-t) was 8290 ng·h/mL, the peak level (Cmax) was 2530 ng/mL, the Tmax turned out to be 0.33 h and the half-life is 8.22 h. Besides, in series [5], the AUC(0-t) came to 4670 ng·h/mL, the clearance is 3.67 mL/min/kg and the half-life was 9.02 h. Besides, the Vd in series [5] (read-out: Vz) was 2.72 L/kg. Moreover, the IC50 in series [2] stood at 12 nM.
Consider `Cc1cc(Oc2c(C(=O)N[C@@H](C)c3ccc(C(=O)O)cc3)c(C(F)F)nn2C)cs1` [Compound I-41, (S)-4-(1-(3-(difluoromethyl)-1-methyl-5-((5-methylthiophen-3-yl)oxy)-1H-pyrazole-4-carboxamido)ethyl)benzoic Acid], for which the IC50 in series [2] was found to be 16 nM.
